Among the test systems are RXF-631 renal; DMS 114 small cell lung; P388/ADR leukemia.
Holding throughout (assay): NCI tumour cell line growth inhibition, 48 h

Structures are written as SMILES.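 How tested: cells in 96-well plates exposed to compound for 48 hours at five concentrations. The concentration for full growth arrest is given as TGI.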 Some results are limits rather than exact numbers.

Compound `N#Cc1ccc([N+](=O)[O-])cc1NC(N)=S` showed a TGI in the test on RXF-631 renal above 100 µM.
As to `O=c1oc2cc(O)ccc2c2oc3cc(O)ccc3c12`, the values for the TGI in the test with DMS 114 small cell lung and in the test with P388/ADR leukemia were above 12.5 µM and above 125 µM, respectively.
For `CN1c2c(nc(N)[nH]c2=O)NCC1CCNc1ccc(C(=O)NC(CCC(=O)O)C(=O)O)cc1` (centres undefined) the same measures were 1770 µM and 1410 µM.
In the case of `Nc1nc(SCCNC(=O)CCc2ccc(O)c(I)c2)nc2c1ncn2C1OC(CO)C(O)C1O` (centres undefined), the TGI in the test on DMS 114 small cell lung is above 100 µM.
The compound `CC[C@@]1(O)C[C@H](OC2CC(N(C)C)C(OC3CC(O)C(OC4CCC(=O)C(C)O4)C(C)O3)C(C)O2)c2c(cc3c(c2O)C(=O)c2c(O)cccc2C3=O)C1C(=O)OC` (some centres undefined) yielded a TGI in the test with DMS 114 small cell lung of 0.474 µM.
`O=C1CCCCN1`: the TGI in the test with DMS 114 small cell lung and with P388/ADR leukemia was above 1120 µM throughout.

These data come from PubChem BioAssay (NCI).
